From patent publication US7514421B2, “Use of an IBAT inhibitor for the treatment of constipation” (Albireo AB, priority 2003, dated 2009)

System: constipated dog
Assay: Buenos dog model for constipation (low fibre/high protein diet, 20 g meat/kg dog/day)
Assay type: in vivo
Conditions: constipated dogs
From the text: As stated hereinbefore the compounds defined in the present invention are useful in the treatment of functional constipation and C-IBS. These properties may be assessed, for example, using models known in the art: • Buenos dog model for constipation, (Hepato-gasteroenterology, 1980, 27, 381-389).
Once constipation has been induced the animals can be dosed with an IBAT inhibitor to asses the ability of the IBAT inhibitor to relieve the constipation.
The following data was generated using the Buenos dog model (method described in the publication above) with the modification that the dogs were given 20 g meat/kg dog/day. The result is calculated as mean value of the increase of faeces during the three treatment days subtracted with the entry value (day before start of treatment with the IBAT inhibitor). The dogs were judge as constipation if there faeces amount per day was below 30 gram.

Compound	Result: mean increase of faeces during the three treatment days subtracted with the entry value (dose 5 μmol/kg, 3 animals)	Result: mean increase of faeces during the three treatment days subtracted with the entry value (dose 5 μmol/kg, 3 animals, listed as compound 1)	Result: mean increase of faeces during the three treatment days subtracted with the entry value (dose 1.5 μmol/kg, 2 animals)	Result: mean increase of faeces during the three treatment days subtracted with the entry value (dose 1.5 μmol/kg, 2 animals, listed as compound 3)	Result: mean increase of faeces during the three treatment days subtracted with the entry value (dose 1.5 μmol/kg, 2 animals, listed as compound 2)
CCCCC1(CCCC)CN(c2ccccc2)c2cc(SC)c(OCC(=O)N[C@@H](C(=O)NCCS(=O)(=O)O)c3ccc(O)cc3)cc2S(=O)(=O)N1 [Compound 1, 1,1-Dioxo-3,3-dibutyl-5-phenyl-7-methylthio-8-(N-{(R)-α-[N-(2-sulphoethyl)carbamoyl]-4-hydroxybenzyl}carbamoylmethoxy)-2,3,4,5-tetrahydro-1,2,5-benzothiadiazepine]	38 ± 7 g/day	38 ± 7 g/day			
CCCCC1(CCCC)CN(c2ccccc2)c2cc(SC)c(OCC(=O)N[C@@H](C(=O)N[C@H](C(=O)O)C(C)C)c3ccc(O)cc3)cc2S(=O)(=O)N1 [Compound 3, 1,1-Dioxo-3,3-dibutyl-5-phenyl-7-methylthio-8-(N-{(R)-α-[N-((S)-1-carboxy-2-methylpropyl)carbamoyl]-4-hydroxybenzyl}carbamoylmethoxy)-2,3,4,5-tetrahydro-1,2,5-benzothiadiazepine]			39 ± 2 g/day	39 ± 2 g/day	
CCCCC1(CCCC)CN(c2ccccc2)c2cc(SC)c(OCC(=O)N[C@@H](C(=O)N[C@H](C(=O)O)[C@@H](C)O)c3ccc(O)cc3)cc2S(=O)(=O)N1 [Compound 2, 1,1-Dioxo-3,3-dibutyl-5-phenyl-7-methylthio-8-(N-{(R)-α-[N-((S)-1-carboxy-2-(R)-hydroxypropyl)carbamoyl]-4-hydroxybenzyl}carbamoylmethoxy)-2,3,4,5-tetrahydro-1,2,5-benzothiadiazepine]			23 ± 11 g/day		23 ± 11 g/day
